# Values quoted from earlier work as cited in patent publication US20060240493A1, “Cca1 as an antifungal target” (priority 2002, published 2006).
# Details: mice, DOX 2 mg/ml in 5% sucrose drinking water, approximately 5 ml every day
smiles,measurement,value
C[C@H]1c2cccc(O)c2C(=O)C2=C(O)[C@]3(O)C(=O)C(C(N)=O)=C(O)[C@@H](N(C)C)[C@@H]3[C@@H](O)[C@@H]21 [doxycycline],concentration of DOX in kidney,> 10 mg/g of kidney
same,concentration of DOX in liver,> 8 mg/g of liver
same,concentration of DOX in serum,more than 2 mg/ml of serum
